Like-named read-outs stand apart in the source and are kept apart here.
Assays:
[1] = molecular target: Ba/F3 L858R/T790M/C797S EGFR triple mutant cell line (Homo sapiens, UniProt P00533, T790M/C797S/L858R, cells depend on it); assay: Cell proliferation inhibition experiment (CellTiter-Glo), Ba/F3 L858R/T790M/C797S; type: cell-based; conditions: 72 hours, Cell Titer-Glo, read-out: Ba/F3 (L858R/T790M/C797S) IC50
Procedure: (§1) 3) 30 nL of gradient diluted compound was transferred into the 384-well experimental plate using Echo 550 (Labcyte) at a DMSO final concentration of 0.1%, and the culture plate was incubated in a cell incubator for 72 hours (37° C., 5% CO2).
(§2) 4) 30 μL of Cell Titer-Glo reagent was added to each well and left for 30 minutes at room temperature and protected from light.
(§3) 5) Envision microplate reader (PerkinElmer) detected chemiluminescence signals.
(§4) 6) GraphPad Prism 8 software was used for data analysis to obtain the IC50 of the compounds of the present disclosure and the positive control.

[2] = test system: EGFR wild-type cell line A431; assay: Cell proliferation inhibition experiment (CellTiter-Glo), A431; type: cell-based; conditions: Homo sapiens, A431 cells, Cell Titer-Glo, read-out: A431 EGFR WT IC50
Procedure: A431 cells, purchased from ATCC.
1) A431 cells were inoculated in a 384-well culture plate at a density of 800 cells per well, 30 μL per well, placed in a cell incubator, and cultured for 24 hours (37° C., 5% CO2).
as §1, §2, §3, §4

[3] = molecular target: Ba/F3 De119/T790M/C797S EGFR triple mutant cell line (Homo sapiens, UniProt P00533, T790M/C797S, cells depend on it, form not given); assay: Cell proliferation inhibition experiment (CellTiter-Glo), Ba/F3 De119/T790M/C797S; type: cell-based; conditions: Ba/F3 Del19/T790M/C797S EGFR triple mutant cells, 72 hours, Cell Titer-Glo; read-out: Ba/F3 (Del19/T790M/C797S) IC50
Sequence of Ba/F3 De119/T790M/C797S EGFR triple mutant cell line (P00533 with tags, fused parts or gaps DEL746-750/T790M/C797S, form open): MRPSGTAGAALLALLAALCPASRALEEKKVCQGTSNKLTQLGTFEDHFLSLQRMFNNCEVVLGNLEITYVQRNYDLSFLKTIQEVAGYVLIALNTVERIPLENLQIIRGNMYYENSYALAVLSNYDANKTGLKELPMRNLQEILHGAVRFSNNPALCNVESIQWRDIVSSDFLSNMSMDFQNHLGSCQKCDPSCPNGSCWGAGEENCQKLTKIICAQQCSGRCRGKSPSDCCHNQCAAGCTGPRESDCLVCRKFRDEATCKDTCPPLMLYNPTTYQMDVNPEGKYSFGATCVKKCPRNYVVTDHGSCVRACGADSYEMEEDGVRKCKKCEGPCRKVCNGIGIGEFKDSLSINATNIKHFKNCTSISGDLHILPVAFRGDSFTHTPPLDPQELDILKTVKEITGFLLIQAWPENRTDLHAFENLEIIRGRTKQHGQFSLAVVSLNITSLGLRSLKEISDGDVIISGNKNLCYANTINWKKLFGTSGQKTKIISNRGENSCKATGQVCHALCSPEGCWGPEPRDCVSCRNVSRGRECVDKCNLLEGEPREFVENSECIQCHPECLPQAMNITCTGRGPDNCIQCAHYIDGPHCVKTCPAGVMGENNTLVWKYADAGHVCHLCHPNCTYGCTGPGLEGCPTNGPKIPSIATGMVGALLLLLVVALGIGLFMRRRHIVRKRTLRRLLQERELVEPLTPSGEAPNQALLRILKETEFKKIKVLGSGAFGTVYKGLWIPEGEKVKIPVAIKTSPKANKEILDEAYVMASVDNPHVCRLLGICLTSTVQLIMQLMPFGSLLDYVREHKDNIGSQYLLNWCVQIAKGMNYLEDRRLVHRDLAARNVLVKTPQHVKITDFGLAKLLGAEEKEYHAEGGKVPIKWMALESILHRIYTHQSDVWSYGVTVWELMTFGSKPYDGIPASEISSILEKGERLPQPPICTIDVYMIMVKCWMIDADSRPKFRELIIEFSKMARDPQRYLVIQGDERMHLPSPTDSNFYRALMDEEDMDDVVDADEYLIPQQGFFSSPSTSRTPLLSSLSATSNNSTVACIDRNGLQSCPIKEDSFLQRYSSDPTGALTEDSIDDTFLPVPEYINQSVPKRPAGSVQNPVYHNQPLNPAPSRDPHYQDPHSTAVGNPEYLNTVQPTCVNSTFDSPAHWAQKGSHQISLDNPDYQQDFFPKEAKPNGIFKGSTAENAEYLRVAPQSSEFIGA
Procedure: as §1, §2, §3, §4

wild-type EGFR = molecular target: T1, wild-type EGFR (Homo sapiens, UniProt P00533); assay: Enzymology experiment in vitro (HTRF/FRET kinase activity), wild-type EGFR; type: biochemical; conditions: HTRF KinEASE-TK
T1 construct: purchased Signalchem
T1 sequence (P00533 25-1210): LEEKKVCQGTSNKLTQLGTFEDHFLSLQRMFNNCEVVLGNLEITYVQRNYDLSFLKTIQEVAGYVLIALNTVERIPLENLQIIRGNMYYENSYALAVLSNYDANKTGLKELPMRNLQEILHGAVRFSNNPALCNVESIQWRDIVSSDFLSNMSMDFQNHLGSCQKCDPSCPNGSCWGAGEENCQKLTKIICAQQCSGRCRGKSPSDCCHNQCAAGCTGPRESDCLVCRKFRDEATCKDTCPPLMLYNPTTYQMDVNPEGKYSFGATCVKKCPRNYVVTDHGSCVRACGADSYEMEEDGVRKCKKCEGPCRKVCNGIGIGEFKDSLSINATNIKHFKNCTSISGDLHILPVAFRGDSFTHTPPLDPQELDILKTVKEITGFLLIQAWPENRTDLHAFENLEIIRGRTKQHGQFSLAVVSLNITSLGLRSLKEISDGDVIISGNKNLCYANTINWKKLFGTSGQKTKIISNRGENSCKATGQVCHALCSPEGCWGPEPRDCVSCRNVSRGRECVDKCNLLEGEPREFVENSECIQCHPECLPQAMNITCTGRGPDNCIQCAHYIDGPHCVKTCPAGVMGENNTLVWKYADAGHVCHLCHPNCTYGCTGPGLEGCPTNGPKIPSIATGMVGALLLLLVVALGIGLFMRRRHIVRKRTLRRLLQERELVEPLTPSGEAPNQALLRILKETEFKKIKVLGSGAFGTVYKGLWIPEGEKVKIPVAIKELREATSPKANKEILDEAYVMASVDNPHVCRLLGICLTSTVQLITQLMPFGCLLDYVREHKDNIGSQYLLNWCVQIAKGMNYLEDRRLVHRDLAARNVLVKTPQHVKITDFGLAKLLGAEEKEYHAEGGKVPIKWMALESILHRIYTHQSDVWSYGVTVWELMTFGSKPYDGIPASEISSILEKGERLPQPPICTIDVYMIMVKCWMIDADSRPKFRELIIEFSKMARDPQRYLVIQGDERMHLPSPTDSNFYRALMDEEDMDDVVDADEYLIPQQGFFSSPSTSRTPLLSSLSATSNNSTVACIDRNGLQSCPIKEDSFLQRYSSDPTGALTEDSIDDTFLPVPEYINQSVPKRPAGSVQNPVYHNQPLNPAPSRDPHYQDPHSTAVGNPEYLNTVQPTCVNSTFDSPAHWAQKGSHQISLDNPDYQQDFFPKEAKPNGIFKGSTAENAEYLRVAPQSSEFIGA
Procedure: (§5) 1. Experimental Materials
(§6) HTRF KinEASE-TK kit detection reagent, purchased from Cisbio
(§7) 1) 10 nL of gradient diluted compound was transferred into a 384-well experimental plate using Echo 550 (Labcyte).
(§8) 2) 5 μL of 2×EGFR enzyme solution was added to the 384-well experimental plate and incubated at room temperature for 10 minutes.
(§9) 3) 5 μL of 2× substrate solution containing polypeptide and ATP was added to the 384-well experimental plate and incubated at room temperature for 40 minutes.
(§10) 4) 10 μL of detection solution containing EDTA, XL665-labeled streptavidin and Eu^3+-labeled antibody was added thereto and incubated at room temperature for 1 hour.

[4] = molecular target: T2, L858R/T790M/C797S triple mutant EGFR (Homo sapiens, UniProt P00533, C797S/L858R/T790M); assay: Enzymology experiment in vitro (HTRF/FRET kinase activity), L858R/T790M/C797S triple mutant EGFR; type: biochemical; conditions: HTRF KinEASE-TK
T2 construct: purchased Signalchem
T2 sequence (P00533 25-1210 T790M/C797S/L858R): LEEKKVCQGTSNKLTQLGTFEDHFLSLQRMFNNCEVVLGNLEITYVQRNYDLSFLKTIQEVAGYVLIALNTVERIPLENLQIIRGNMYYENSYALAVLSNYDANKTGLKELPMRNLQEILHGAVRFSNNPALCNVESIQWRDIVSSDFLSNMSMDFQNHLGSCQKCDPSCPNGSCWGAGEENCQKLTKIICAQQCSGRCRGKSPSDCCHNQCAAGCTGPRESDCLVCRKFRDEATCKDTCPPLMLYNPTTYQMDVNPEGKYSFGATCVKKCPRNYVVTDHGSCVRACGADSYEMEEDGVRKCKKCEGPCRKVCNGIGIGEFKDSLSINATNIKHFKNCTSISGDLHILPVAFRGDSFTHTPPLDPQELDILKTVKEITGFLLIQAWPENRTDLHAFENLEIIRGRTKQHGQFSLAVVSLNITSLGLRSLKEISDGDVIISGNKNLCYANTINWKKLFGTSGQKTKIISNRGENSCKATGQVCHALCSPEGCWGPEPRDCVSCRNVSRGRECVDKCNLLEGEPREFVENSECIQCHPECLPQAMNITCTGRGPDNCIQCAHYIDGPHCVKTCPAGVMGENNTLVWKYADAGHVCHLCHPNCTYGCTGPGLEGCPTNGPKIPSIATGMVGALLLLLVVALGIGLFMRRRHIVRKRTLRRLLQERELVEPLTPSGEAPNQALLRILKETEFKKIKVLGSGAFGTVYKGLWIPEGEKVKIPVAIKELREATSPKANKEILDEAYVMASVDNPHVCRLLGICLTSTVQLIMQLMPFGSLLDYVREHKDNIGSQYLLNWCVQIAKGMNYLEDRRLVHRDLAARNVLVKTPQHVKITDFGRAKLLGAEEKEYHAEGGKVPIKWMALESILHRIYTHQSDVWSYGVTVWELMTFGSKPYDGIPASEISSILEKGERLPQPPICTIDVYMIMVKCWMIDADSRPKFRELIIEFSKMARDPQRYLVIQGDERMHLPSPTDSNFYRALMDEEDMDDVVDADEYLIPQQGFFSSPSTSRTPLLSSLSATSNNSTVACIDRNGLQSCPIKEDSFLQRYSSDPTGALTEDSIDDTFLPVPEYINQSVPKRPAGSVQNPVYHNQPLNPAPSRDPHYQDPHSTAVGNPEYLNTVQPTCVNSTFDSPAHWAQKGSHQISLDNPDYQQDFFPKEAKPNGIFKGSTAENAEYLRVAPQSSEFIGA
Procedure: as §5, §6, §7, §8, §9, §10

[5] = read-out: EGFR (L858R/T790M/C797S) IC50

Sequence of Ba/F3 L858R/T790M/C797S EGFR triple mutant cell line (P00533 whole entry T790M/C797S/L858R): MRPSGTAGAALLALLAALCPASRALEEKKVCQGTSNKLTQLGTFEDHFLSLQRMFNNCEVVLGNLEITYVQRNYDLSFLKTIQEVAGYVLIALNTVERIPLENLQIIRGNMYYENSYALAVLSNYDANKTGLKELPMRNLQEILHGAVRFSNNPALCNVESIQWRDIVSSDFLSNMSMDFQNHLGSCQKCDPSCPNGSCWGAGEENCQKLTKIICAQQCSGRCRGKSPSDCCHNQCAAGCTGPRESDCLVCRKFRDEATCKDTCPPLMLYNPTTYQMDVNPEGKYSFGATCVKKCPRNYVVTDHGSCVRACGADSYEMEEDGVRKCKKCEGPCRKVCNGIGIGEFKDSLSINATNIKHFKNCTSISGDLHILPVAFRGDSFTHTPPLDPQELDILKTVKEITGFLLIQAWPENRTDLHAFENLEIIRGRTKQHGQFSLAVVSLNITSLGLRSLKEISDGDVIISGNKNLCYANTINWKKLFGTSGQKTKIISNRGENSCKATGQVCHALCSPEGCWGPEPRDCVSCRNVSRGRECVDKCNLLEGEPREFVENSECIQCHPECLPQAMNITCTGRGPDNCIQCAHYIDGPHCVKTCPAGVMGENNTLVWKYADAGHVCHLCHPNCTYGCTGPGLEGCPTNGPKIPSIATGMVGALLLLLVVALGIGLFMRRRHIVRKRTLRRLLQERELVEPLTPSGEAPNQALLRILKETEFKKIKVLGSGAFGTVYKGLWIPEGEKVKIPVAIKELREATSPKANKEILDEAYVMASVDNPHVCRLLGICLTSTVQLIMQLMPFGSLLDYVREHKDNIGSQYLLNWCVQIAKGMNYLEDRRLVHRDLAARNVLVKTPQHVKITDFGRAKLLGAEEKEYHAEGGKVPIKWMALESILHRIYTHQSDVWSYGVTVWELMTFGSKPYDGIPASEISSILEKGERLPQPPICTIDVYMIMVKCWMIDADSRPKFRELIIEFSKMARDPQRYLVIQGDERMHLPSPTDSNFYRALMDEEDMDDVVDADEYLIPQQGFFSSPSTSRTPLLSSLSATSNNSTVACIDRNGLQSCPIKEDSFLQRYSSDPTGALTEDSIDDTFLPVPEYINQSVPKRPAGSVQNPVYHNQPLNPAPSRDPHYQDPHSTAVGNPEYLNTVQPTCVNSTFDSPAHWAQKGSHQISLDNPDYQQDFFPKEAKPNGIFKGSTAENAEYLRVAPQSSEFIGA

Row | GI50 [1] [nM] | IC50 ([2]; A-431, 72 h) [nM] | GI50 [3] [nM] | IC50 (wild-type EGFR; read-out: EGFR (WT) IC50) [nM] | IC50 [4, 5] [nM] | SMILES | IC50 ([2]; A-431, 72 hours) [nM] | IC50 (wild-type EGFR; EGFR (WT) IC50(nM)) [nM] | IC50 ([4]; EGFR (L858R/T790M/C797S) IC50(nM)) [nM]
1 | 20 | 351 | 10.6 | 21.2 | 0.47 | COc1cc(N2CCC3(CCOC3)C2)c(-c2cnn(C)c2)cc1Nc1ncc(Br)c(Nc2ccc3nccnc3c2P(C)(C)=O)n1 (stereo not shown) [compound 203] | – | – | –
2 | 5.58 | 227 | 2.23 | 7.3 | 0.25 | COc1cc(N2CCC3(CCOCC3)CC2)c(-c2cnn(C)c2)cc1Nc1ncc(Br)c(Nc2ccc3nccnc3c2P(C)(C)=O)n1 [compound 215] | – | – | –
3 | 3.29 | 60.5 | 0.94 | 3.87 | 0.95 | COc1cc(N2CCC3(CC2)CN(C)CC(C)O3)c(-c2cnn(C)c2)cc1Nc1ncc(Br)c(Nc2ccc3nccnc3c2P(C)(C)=O)n1 (racemic) [compound 217, (6-((5-Bromo-2-((4-(2,4-dimethyl-1-oxa-4,9-diazaspiro[5.5]undecan-9-yl)-2-methoxy-5-(1-methyl-1H-pyrazol-4-yl)phenyl)amino)pyrimidin-4-yl)amino)quinoxalin-5-yl)dimethylphosphine oxide] | – | – | –
4 | 3.7 | 120 | 2.22 | 6.92 | 0.74 | COc1cc(N2CCC3(CC2)CO[C@@H](C)[C@@H]3N(C)C)c(-c2cnn(C)c2)cc1Nc1ncc(Br)c(Nc2ccc3nccnc3c2P(C)(C)=O)n1 (stereo in doubt) [compound 201] | – | – | –
5 | 5.38 | 41.3 | 1.7 | 3.1 | 0.33 | COc1cc(N2CCN3CCCC[C@@H]3C2)c(-c2cnn(C)c2)cc1Nc1ncc(Br)c(Nc2ccc3nccnc3c2P(C)(C)=O)n1 [compound 175] | – | – | –
6 | 4.25 | 121 | 1.29 | 3.37 | 0.06 | CN(C)c1c(-c2cnn(C)c2)cc(Nc2ncc(Br)c(Nc3ccc4nccnc4c3P(C)(C)=O)n2)c2c1CCO2 [compound 29] | – | – | –
7 | 28.8 | 168 | 6.99 | 2.78 | 0.15 | COc1cc(N2CCS(=O)(=O)CC2)c(-c2cnn(C)c2)cc1Nc1ncc(Br)c(Nc2ccc3nccnc3c2P(C)(C)=O)n1 [compound 94] | – | – | –
8 | 7.82 | 316 | 1.02 | 3.57 | 0.21 | COc1cc(N2CCOC(C)C2)c(-c2cnn(C)c2)cc1Nc1ncc(Br)c(Nc2ccc3nccnc3c2P(C)(C)=O)n1 (stereo not shown) [compound 134] | – | – | –
9 | 5.61 | 137 | 0.58 | 0.94 | 0.12 | COc1cc(N2CCOCC2)c(-c2cnn(C)c2)cc1Nc1ncc(Br)c(Nc2ccc3nccnc3c2P(C)(C)=O)n1 [Compound 1, (6-((5-bromo-2-((2-methoxy-5-(1-methyl-1H-pyrazol-4-yl)-4-morpholinophenyl)amino)pyrimidin-4-yl)amino)quinoxalin-5-yl)-dimethylphosphine oxide] | – | – | –
10 | 5.96 | 24.5 | 1.99 | 0.17 | < 0.05 | COc1cc(N2CCN(C)CC2)c(-c2cnn(C)c2)cc1Nc1ncc(Br)c(Nc2ccc3nccnc3c2P(C)(C)=O)n1 [Compound 6] | – | – | –
11 | 16.1 | 159 | 6.53 | 1.65 | 0.4 | COc1cc(N2CCOC(CO)C2)c(-c2cnn(C)c2)cc1Nc1ncc(Br)c(Nc2ccc3nccnc3c2P(C)(C)=O)n1 (stereo not shown) [compound 115] | – | – | –
12 | 327 | 752 | 93.2 | 384 | 11.9 | COc1cc(S(=O)(=O)N(C)C)c(-c2cnn(C)c2)cc1Nc1ncc(Br)c(Nc2ccc3nccnc3c2P(C)(C)=O)n1 [Compound 35, 4-((5-bromo-4-((5-(dimethylphosphoryl)quinoxalin-6-yl)amino)pyrimidin-2-yl)amino)-5-methoxy-N,N-dimethyl-2-(1-methyl-1H-pyrazol-4-yl)benzenesulfonamide] | – | – | –
13 | 14.4 | 550 | 6.76 | 45.5 | 0.53 | COc1cc(N2CCOCC2)c(-c2cnn(C(F)F)c2)cc1Nc1ncc(Br)c(Nc2ccc3nccnc3c2P(C)(C)=O)n1 [compound 78] | – | – | –
14 | 5.02 | 152 | 0.51 | 1.57 | 0.13 | COc1cc(N2CCN(CCF)CC2)c(-c2cnn(C)c2)cc1Nc1ncc(Br)c(Nc2ccc3nccnc3c2P(C)(C)=O)n1 [compound 103] | – | – | –
15 | 45.9 | 76.1 | 6.32 | 1.59 | 0.05 | COc1cc(N2CCCN(C)CC2)c(-c2cnn(C)c2)cc1Nc1ncc(Br)c(Nc2ccc3nccnc3c2P(C)(C)=O)n1 [compound 12] | – | – | –

Continued, compound first:

Row | SMILES | GI50 [1] [nM] | IC50 ([2]; A-431, 72 h) [nM] | GI50 [3] [nM] | IC50 (wild-type EGFR; read-out: EGFR (WT) IC50) [nM] | IC50 [4, 5] [nM] | IC50 ([2]; A-431, 72 hours) [nM] | IC50 (wild-type EGFR; EGFR (WT) IC50(nM)) [nM] | IC50 ([4]; EGFR (L858R/T790M/C797S) IC50(nM)) [nM]
16 | COc1cc(N2CCC3(CCN(CC4(C#N)CC4)CC3)CC2)c(-c2cnn(C)c2)cc1Nc1ncc(Br)c(Nc2ccc3nccnc3c2P(C)(C)=O)n1 [compound 244, 1-((9-(4-((5-Bromo-4-((5-(dimethylphosphoryl)quinoxalin-6-yl)amino)pyrimidin-2-yl)amino)-5-methoxy-2-(1-methyl-1H-pyrazol-4-yl)phenyl)-3,9-diazaspiro[5.5]undecan-3-yl)methyl)cyclopropane-1-carbonitrile] | 2.43 | 125 | 1.19 | 2.74 | 0.78 | – | – | –
17 | COc1cc(N2CC(C)OC(C)C2)c(-c2cnn(C)c2)cc1Nc1ncc(Br)c(Nc2cc3c(cc2P(C)(C)=O)CC3)n1 (racemic) [compound 136] | 57.1 | 1750 | 13.7 | 99.5 | 5.3 | – | – | –
18 | COc1cc(N2CCC3(CC2)CCN(C2COC2)CC3)c(-c2cnn(C)c2)cc1Nc1ncc(Br)c(Nc2ccc3nccnc3c2P(C)(C)=O)n1 [compound 248] | 2.37 | 84.7 | 1.17 | 1.91 | 0.29 | – | – | –
19 | COc1cc(N2CCN(CCN3CCOCC3)CC2)c(-c2cnn(C)c2)cc1Nc1ncc(Br)c(Nc2ccc3nccnc3c2P(C)(C)=O)n1 [compound 191] | 11.4 | 70 | 3.47 | 2.44 | 0.23 | – | – | –
20 | COc1cc(N2CCC(N3CCN(C)CC3)CC2)c(-c2cscn2)cc1Nc1ncc(Br)c(Nc2ccc3nccnc3c2P(C)(C)=O)n1 [compound 98] | 27.8 | 177 | 11 | 16.2 | 0.82 | – | – | –
21 | COCCN1CCN(C2CCN(c3cc(OC)c(Nc4ncc(Br)c(Nc5ccc6nccnc6c5P(C)(C)=S)n4)cc3-c3cnn(C)c3)CC2)CC1 [compound 232] | 8.59 | – | 3.16 | – | – | 126 | 4.11 | 0.58
22 | COc1cc(N2CCN(CCF)CC2)c(-c2cnn(C)c2)cc1Nc1ncc(Br)c(Nc2cc3c(cc2P(C)(C)=O)CC3)n1 [compound 138] | 11.9 | 630 | 9.31 | 30.7 | 0.53 | – | – | –
23 | COc1cc(N2CCC3(CC2)CN(C)CCN3C)c(-c2cnn(C)c2)cc1Nc1ncc(Br)c(Nc2ccc3nccnc3c2P(C)(C)=O)n1 [compound 194] | 16.4 | 79.5 | 5.56 | 2.85 | 0.17 | – | – | –
24 | COc1cc(N2CCC3(CCN(C)CC3)CC2)c(-c2cnn(C)c2)cc1Nc1ncc(Br)c(Nc2cc3c(cc2N(C)S(C)(=O)=O)CC3)n1 [compound 196] | 20.8 | 356 | 12.3 | 3.35 | 0.59 | – | – | –
25 | COc1cc(N2CCC3(CC2)CN(C)CCO3)c(-c2cnn(C)c2)cc1Nc1ncc(Br)c(Nc2cc3c(cc2N(C)S(C)(=O)=O)CC3)n1 [compound 195] | 12.5 | 415 | 7.7 | 8.52 | 2.33 | – | – | –
26 | COCCN1CCN(c2cc(OC)c(Nc3ncc(Br)c(Nc4ccccc4NS(C)(=O)=O)n3)cc2-c2cnn(C)c2)CC1 [compound 132] | 30 | 270 | 2.45 | 5.71 | 0.07 | – | – | –
